Reference: US11045448B2, “Piperidines as covalent menin inhibitors” (THE REGENTS OF THE UNIVERSITY OF MICHIGAN, priority 2017, dated 2021)
Like-named read-outs stand apart in the source and are kept apart here.

Assays:
[1] = target: T1, menin protein (Homo sapiens (Human), UniProt O00255); assay: Covalent binding to menin protein by mass spectroscopy; settings: incubated with recombinant human menin, compared to menin apo
Experimental: No. 1 and Cpd. […] Recombinant human menin protein was incubated with Cpd. No. 1 or Cpd. No. 3 and compared to menin protein alone (Menin apo).

[2] = tested on: MV4-11; assay: 7-day proliferation assay (WST-8), MV4-11; type: cell-based; settings: Homo sapiens, 168 h, 7 days, read-out: IC50 in cell growth inhibition
Experimental: (§1) The effect of representative Compounds of the Disclosure on cell viability was determined in a 7-day proliferation assay. Cells were maintained in the appropriate culture medium with 10% FBS at 37° C. and an atmosphere of 5% CO2.
(§2) Cells were seeded in 96-well flat bottom (Corning COSTAR, Corning, N.Y., cat #3595) at a density of 2,000-3,000 cells/well in 100 μl of culture medium. Compounds were serially diluted in the appropriate medium, and 100 μl of the diluted compounds were added to the appropriate wells of the cell plate. After the addition of compounds, the cells were incubated at 37° C. in an atmosphere of 5% CO2 for 7 days. Cell viability was determined using the WST (2-(2-methoxy-4-nitrophenyl)-3-(4-nitrophenyl)-5-(2,4-disulfophenyl)-2H-tetrazolium, monosodium salt) Cell Counting-8 Kit (Dojindo Molecular Technologies, Inc., Rockville, Md.) according to the manufacturers' instructions.
(§3) WST-8 reagent was added to each well at a final concentration of 10% (v/v), and then the plates were incubated at 37° C. for 1-2 hours for color development. The absorbance was measured at 450 nm using a SPECTRAmax PLUS plate reader (Molecular Devices, Sunnyvale, Calif.). The readings were normalized to the DMSO-treated cells and the half maximal inhibitory concentration (IC50) was calculated by nonlinear regression (four parameters sigmoid fitted with variable slope, least squares fit, and no constraint) analysis using the GraphPad Prism 5 software (GraphPad Software, La Jolla, Calif.).

[3] = target: T1, menin protein; assay: Fluorescence polarization (FP) competitive binding assay, menin binding affinity; settings: menin protein 4 nM, probe 2 nM, room temperature 30 minutes
Experimental: A fluorescence polarization (FP) competitive binding assay was used to determine the binding affinities of representative menin inhibitors. A FAM labeled fluorescent probe was designed and synthesized based on a MLL1 peptide (FAM-MM2). Equilibrium dissociation constant (Kd) value of FAM-MM2 to menin protein was determined from protein saturation experiments by monitoring the total fluorescence polarization of mixtures composed with the fluorescent probe at a fixed concentration and the protein with increasing concentrations up to full saturation. Serial dilutions of the protein were mixed with FAM-MM2 to a final volume of 200 μl in the assay buffer (PBS with 0.02% Bovine γ-Globulin and 4% DMSO. 0.01% Triton X-100 was added right before assays). Final FAM-MM2 concentration was 2 nM. Plates were incubated at room temperature for 30 minutes with gentle shaking to assure equilibrium. FP values in millipolarization units (mP) were measured using the Infinite M-1000 plate reader (Tecan U.S., Research Triangle Park, N.C.) in Microfluor 1 96-well, black, v-bottom plates (Thermo Scientific, Waltham, Mass.) at an excitation wavelength of 485 nm and an emission wavelength of 530 nm.
The IC50, see Table 3, of representative Compounds of the Disclosure were determined in a competitive binding experiment. Mixtures of 5 μl of the tested compounds in DMSO and 195 μl of preincubated protein/probe complex solution in the assay buffer were added into assay plates which were incubated at room temperature for 30 minutes with gentle shaking. Final concentration of the menin protein was 4 nM, and final probe concentration is 2 nM. Negative controls containing protein/probe complex only (equivalent to 0% inhibition), and positive controls containing only free probes (equivalent to 100% inhibition), were included in each assay plate. FP values were measured as described above. IC50 values were determined by nonlinear regression fitting of the competition curves.

[4] = tested on: MonoMac6; assay: 7-day proliferation assay (WST-8), MonoMac6; type: cell-based; settings: Homo sapiens, MONO-MAC-6, 168 h, 7 days, read-out: IC50 in cell growth inhibition
Experimental: as §1, §2, §3

[5] = tested on: MOLM14; assay: 7-day proliferation assay (WST-8), MOLM14; type: cell-based; settings: Homo sapiens, MOLM-14, 168 h; Table 4; MOLM14, AML, MLL/AF9; 7 days; read-out: IC50 in cell growth inhibition
Experimental: as §1, §2, §3

[6] = tested on: SEM cells; assay: 7-day proliferation assay (WST-8), SEM; type: cell-based; settings: 7 days, read-out: IC50 in cell growth inhibition
Experimental: as §1, §2, §3

[7] = tested on: RS4-11; assay: 7-day proliferation assay (WST-8), RS4-11; type: cell-based; settings: Homo sapiens, 7 days, read-out: IC50 in cell growth inhibition
Experimental: as §1, §2, §3

[8] = tested on: MOLM13; assay: 7-day proliferation assay (WST-8), MOLM13; type: cell-based; settings: Homo sapiens, MOLM-13, 168 h, 7 days, read-out: IC50 in cell growth inhibition
Experimental: as §1, §2, §3

[9] = tested on: MEIS1 and HOXA gene expression in MOLM13 cell lines; assay: MEIS1 and HOXA gene expression by RT-PCR in MOLM13; type: cell-based
Experimental: FIG. 6 is a bar graph showing that Cpd. No. 57 suppresses MEIS1 and HOXA gene expression in MOLM13 cell lines. Cells were treated with different concentrations of Cpd. No. 57 for 24 h. mRNA levels of MEIS1, HOXA9 and HOXA11 were determined by RT-PCR. *(p<0.05), **(p<0.01).
(§4) No. 57 suppresses MEIS1 and HOXA gene expression in MV4;11 and MOLM13 cell lines.

[10] = tested on: MOLM-16 (no MLL fusion); assay: 7-day proliferation assay (WST-8), MOLM-16; type: cell-based; settings: MOLM16, 168 h, Table 6, 7 days, read-out: IC50 in cell growth inhibition
Experimental: as §1, §2
(§5) WST-8 reagent was added to each well at a final concentration of 10% (v/v), and then the plates were incubated at 37° C. for 1-2 hours for color development. The absorbance was measured at 450 nm using a SPECTRAmax PLUS plate reader (Molecular Devices, Sunnyvale, Calif.). […]

[11] = tested on: K562 (no MLL fusion); assay: 7-day proliferation assay (WST-8), K562; type: cell-based; settings: Homo sapiens, 168 h, Table 6, 7 days, read-out: IC50 in cell growth inhibition
Experimental: as §1, §2, §5

[12] = tested on: SKM-1 (no MLL fusion); assay: 7-day proliferation assay (WST-8), SKM-1; type: cell-based; settings: Homo sapiens, 168 h, Table 6, 7 days, read-out: IC50 in cell growth inhibition
Experimental: as §1, §2, §5

[13] = tested on: MOLM-4 (MLL-AF9); assay: 7-day proliferation assay (WST-8), MOLM-4; type: cell-based; settings: 168 h, Table 6, 7 days, read-out: IC50 in cell growth inhibition
Experimental: as §1, §2, §5

[14] = tested on: HL-60 (no MLL fusion); assay: 7-day proliferation assay (WST-8), HL-60; type: cell-based; settings: Homo sapiens, 168 h, Table 6, 7 days, read-out: IC50 in cell growth inhibition
Experimental: as §1, §2, §5

[15] = tested on: MEIS1 and HOXA gene expression in MV4;11 cell lines; assay: MEIS1 and HOXA gene expression by RT-PCR in MV4;11; type: cell-based; settings: for MEIS1 and HOXA gene expression (mRNA levels of MEIS1, HOXA9 and HOXA11): different concentrations
Experimental: FIG. 4 is a bar graph showing that Cpd. No. 57 suppresses MEIS1 and HOXA gene expression in MV4;11 cell lines. Cells were treated with different concentrations of Cpd. No. 57 for 24 h. mRNA levels of MEIS1, HOXA9 and HOXA11 were determined by RT-PCR. *(p<0.05), **(p<0.01).
FIG. 5 is a bar graph showing that Cpd. No. 57 suppresses MEIS1 and HOXA gene expression in MV4;11 cell lines. Cells were treated with different concentrations of Cpd. No. 57 for 6 h. mRNA levels of MEIS1, HOXA9 and HOXA11 were determined by RT-PCR. *(p<0.05), **(p<0.01).
as §4

[16] = Table 4, MonoMac6, AML, MLL/AF9
[17] = 168 h, Table 4, RS4-11, B-lineage ALL, MLL/AF4

T1 sequence (O00255 whole entry): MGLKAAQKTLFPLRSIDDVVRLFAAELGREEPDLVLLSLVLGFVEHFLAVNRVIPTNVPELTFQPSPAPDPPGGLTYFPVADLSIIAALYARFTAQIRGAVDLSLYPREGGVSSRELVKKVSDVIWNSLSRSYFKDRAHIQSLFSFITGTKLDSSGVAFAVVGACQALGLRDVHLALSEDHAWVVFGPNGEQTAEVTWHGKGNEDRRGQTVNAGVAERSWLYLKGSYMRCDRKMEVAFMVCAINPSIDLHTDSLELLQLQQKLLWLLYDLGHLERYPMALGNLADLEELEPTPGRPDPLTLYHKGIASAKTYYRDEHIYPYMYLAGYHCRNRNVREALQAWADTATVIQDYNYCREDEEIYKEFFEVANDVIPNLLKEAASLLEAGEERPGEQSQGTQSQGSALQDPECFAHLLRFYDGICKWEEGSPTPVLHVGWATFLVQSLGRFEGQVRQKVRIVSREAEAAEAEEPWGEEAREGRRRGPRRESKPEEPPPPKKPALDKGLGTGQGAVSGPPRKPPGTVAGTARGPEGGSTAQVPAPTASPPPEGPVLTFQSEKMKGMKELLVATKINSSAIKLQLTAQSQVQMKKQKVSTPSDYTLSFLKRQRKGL

C=CC(=O)N1CC(S(=O)(=O)c2ccc(N3CC(CN4CCC([C@@](C#N)(c5cccc(F)c5)[C@H]5CCC[C@@H]5OC(=O)NC)CC4)C3)cc2)C1 [Cpd. No. 1, (1S,2R)-2-((S)-(1-((1-(4-((1-acryloylazetidin-3-yl)sulfonyl)phenyl)azetidin-3-yl)methyl)piperidin-4-yl)(cyano)(3-fluorophenyl)methyl)cyclopentyl methylcarbamate]
Covalent binding with menin protein (mass spectroscopy) [1]: covalently bind with menin protein | IC50 ([2]; Table 4, MV4-11, AML, MLL/AF4): 4.3 nM | IC50 [3]: 5 nM | IC50 [4, 16]: 84 nM | IC50 [5]: 41 nM | IC50 ([6]; MLL-AF9, 168 h, Table 4): 10.9 nM | IC50 [7, 17]: 8.8 nM | IC50 ([8]; Table 4, MOLM13, AML, MLL/AF9): 27.2 nM

C=CC(=O)Nc1cccc(S(=O)(=O)c2ccc(N3CC(CN4CCC([C@@](C#N)(c5cccc(F)c5)[C@H]5CCC[C@@H]5OC(=O)NC)CC4)C3)cc2)c1 [Cpd. No. 3, (1S,2R)-2-((S)-(1-((1-(4-((3-acrylamidophenyl)sulfonyl)phenyl)azetidin-3-yl)methyl)piperidin-4-yl)(cyano)(3-fluorophenyl)methyl)cyclopentyl methylcarbamate]
Covalent binding with menin protein (mass spectroscopy) [1]: covalently bind with menin protein | IC50 [3]: 3 nM

C=CC(=O)Nc1cccc(S(=O)(=O)c2ccc(N3CC(CN4CCC([C@@](C#N)(c5cccc(F)c5)[C@H]5CCC[C@@H]5NC(=O)OC)CC4)C3)cc2)c1 [Cpd. No. 5, methyl ((1S,2R)-2-((S)-(1-((1-(4-((3-acrylamidophenyl)sulfonyl)phenyl)azetidin-3-yl)methyl)piperidin-4-yl)(cyano)(3-fluorophenyl)methyl)cyclopentyl)carbamate]
IC50 ([2]; Table 4, MV4-11, AML, MLL/AF4): 8.3 nM | IC50 [3]: 2 nM | IC50 [4, 16]: 156 nM | IC50 [5]: 78.8 nM | IC50 ([6]; MLL-AF9, 168 h, Table 4): 39.6 nM | IC50 [7, 17]: 10.7 nM | IC50 ([8]; Table 4, MOLM13, AML, MLL/AF9): 41.4 nM

C=CC(=O)N1CC(S(=O)(=O)c2ccc(N3CC(CN4CCC([C@@](C#N)(c5cccc(F)c5)[C@H]5CCC[C@@H]5NC(=O)OC)CC4)C3)cc2)C1 [Cpd. No. 6, methyl ((1S,2R)-2-((S)-(1-((1-(4-((1-acryloylazetidin-3-yl)sulfonyl)phenyl)azetidin-3-yl)methyl)piperidin-4-yl)(cyano)(3-fluorophenyl)methyl)cyclopentyl)carbamate]
IC50 ([2]; Table 4, MV4-11, AML, MLL/AF4): 44.8 nM | IC50 [3]: 3 nM | IC50 [4, 16]: 764 nM | IC50 [5]: 180 nM | IC50 ([6]; MLL-AF9, 168 h, Table 4): 79 nM | IC50 [7, 17]: 62.1 nM | IC50 ([8]; Table 4, MOLM13, AML, MLL/AF9): 154 nM

C=CC(=O)Nc1cccc(S(=O)(=O)c2ccc(N3CC(CN4CCC([C@@](Cn5ccnc5CC)(c5cccc(F)c5)[C@H]5CCC[C@@H]5NC(=O)OC)CC4)C3)cc2)c1 [Cpd. No. 7, methyl ((1S,2R)-2-((S)-1-(1-((1-(4-((3-acrylamidophenyl)sulfonyl)phenyl)azetidin-3-yl)methyl)piperidin-4-yl)-2-(2-ethyl-1H-imidazol-1-yl)-1-(3-fluorophenyl)ethyl)cyclopentyl)carbamate]
IC50 ([2]; Table 4, MV4-11, AML, MLL/AF4): 2.2 nM | IC50 [3]: 3 nM | IC50 [4, 16]: 67.7 nM | IC50 [5]: 17.6 nM | IC50 ([6]; MLL-AF9, 168 h, Table 4): 4.7 nM | IC50 [7, 17]: 5.9 nM | IC50 ([8]; Table 4, MOLM13, AML, MLL/AF9): 16.9 nM

COC(=O)N[C@H]1CCC[C@@H]1[C@](C#N)(c1cccc(F)c1)C1CCN(CC2CN(c3ccc(S(=O)(=O)C4CN(C(=O)/C=C/CN(C)C)C4)cc3)C2)CC1 [Cpd. No. 57, methyl ((1S,2R)-2-((S)-cyano(1-((1-(4-((1-((E)-4-(dimethylamino)but-2-enoyl)azetidin-3-yl)sulfonyl)phenyl)azetidin-3-yl)methyl)piperidin-4-yl)(3-fluorophenyl)methyl)cyclopentyl)carbamate]
MEIS1 and HOXA gene expression (mRNA levels of MEIS1, HOXA9 and HOXA11) ([9]; MOLM13, 24 h, different concentrations, RT-PCR (FIG. 6)): suppresses | MEIS1 and HOXA gene expression ([9]; MOLM13, summary sentence for FIG. 6): suppresses | IC50 [10]: 6500 nM | IC50 [11]: 4500 nM | IC50 [12]: 900 nM | IC50 [13]: 31.3 nM | IC50 ([2]; Table 5, MV4-11): 2.3 nM | IC50 [3]: 3 nM | IC50 ([4]; Table 6, MonoMac6 (MLL-AF9)): 10.3 nM | IC50 [14]: 1600 nM | IC50 ([6]; 168 h, Table 6, SEM (MLL-AF4)): 18 nM | MEIS1 and HOXA gene expression (mRNA levels of MEIS1, HOXA9 and HOXA11) ([15]; MV4;11, 6 h, RT-PCR (FIG. 5)): suppresses | MEIS1 and HOXA gene expression (mRNA levels of MEIS1, HOXA9 and HOXA11) ([15]; MV4;11, 24 h, RT-PCR (FIG. 4)): suppresses | MEIS1 and HOXA gene expression ([15]; MV4;11, summary sentence for FIG. 4, FIG. 5): suppresses | IC50 ([7]; RS4-11, 168 h, Table 6): 9.4 nM | IC50 ([8]; Table 5, MOLM13): 15.4 nM

C=CC(=O)N1CCCC(S(=O)(=O)c2ccc(N3CC(CN4CCC([C@@](C#N)(c5cccc(F)c5)[C@H]5CCC[C@@H]5NC(=O)OC)CC4)C3)cc2)C1 (stereo partly drawn) [Cpd. No. 78, methyl ((1S,2R)-2-((1S)-(1-((1-(4-((1-acryloylpiperidin-3-yl)sulfonyl)phenyl)azetidin-3-yl)methyl)piperidin-4-yl)(cyano)(3-fluorophenyl)methyl)cyclopentyl)carbamate]
IC50 ([2]; Table 5, MV4-11): 65 nM | IC50 [3]: 10 nM | IC50 ([8]; Table 5, MOLM13): 291 nM
